Test system: S. salivarius
Assay: Etest MIC susceptibility of clinical S. salivarius isolates to antibiotics
Assay type: cell-based, Streptococcus salivarius
Experimental: The dorsum of the tongue was swabbed and the specimen collected using a BBL CultureSwab Collection and Transport System (Difco, Detroit, Mich.). The sterile cotton stick was drawn across the dorsum of the tongue 10-12 times while maintaining pressure. Swabs were stored at 4° C. for no more than 24 h. Cultures were diluted 10 and 100-fold using Tryptic Soy Broth (Difco, Detroit, Mich.), and diluted cultures directly inoculated on mitis-salivarius agar (Difco, Detroit, Mich.) using sterile technique. Plates were incubated upside down at 37° C. in 5% carbon dioxide for 24 h. Colonies were screened by morphology consistent with S. salivarius (large, soft, fluffy colonies due to levan production from the sucrose in the agar). This is the standard method used to screen for S. salivarius (24;24). All samples identified based on visual morphology were frozen and stored for subsequent testing (BLIS assays and resistance testing).
Colonies identified as S. salivarius by morphology were tested for susceptibility to clindamycin, erythromycin and tetracycline using the Etest MIC method. Etest strips were purchased from AB Biodisk (Piscataway, N.J., USA), and were used in accordance with the manufacturer's instructions. The concentration gradient of each antimicrobial agent on the Etest strips was 0.016-256 ug/ml. MICs were read directly from the test strip where the zone of inhibition intersected the MIC scale on the strip. Zones of inhibition were compared with standard values (NCCLS M100-S10) to assign a designation of “susceptible,” “intermediate”, or “resistant” to each antimicrobial agent.
Secondarily, determination was made as to whether the S. salivarius recovered was resistant to clindamycin, erythromycin, and tetracycline. Chi-squared analyses were performed to detect a difference among Groups Ia, Ib, and II. We further stratified the acne patients into those receiving oral and/or topical antibiotics, and no antibiotics. These findings were represented as simple percentages, allowing for qualitative comparisons among these groups. […] This accounts for the discrepancy between the numerators in Table 2 and the denominators in Table 3.

[1] = Group II: no acne, no antibiotics, 15 isolates, NCCLS M100-S10
[2] = Group Ia: acne, using antibiotics, 13 isolates, NCCLS M100-S10
[3] = Group Ib: acne, not using antibiotics, 5 isolates, NCCLS M100-S10

Row | SMILES | Proportion of antibiotic-resistant Streptococcus salivarius in the oropharynx [1] | Proportion of antibiotic-resistant Streptococcus salivarius in the oropharynx (Group II: no acne, no antibiotics, 15 isolates, NCCLS M100-S10, listed as clindamycin) [%] | Proportion of antibiotic-resistant Streptococcus salivarius in the oropharynx [2] | Proportion of antibiotic-resistant Streptococcus salivarius in the oropharynx (Group Ia: acne, using antibiotics, 13 isolates, NCCLS M100-S10, listed as clindamycin) [%] | Proportion of antibiotic-resistant Streptococcus salivarius in the oropharynx [3] | Proportion of antibiotic-resistant Streptococcus salivarius in the oropharynx (Group Ib: acne, not using antibiotics, 5 isolates, NCCLS M100-S10, listed as clindamycin) [%] | Proportion of antibiotic-resistant Streptococcus salivarius in the oropharynx (Group II: no acne, no antibiotics, 15 isolates, NCCLS M100-S10, listed as erythromycin) [%] | Proportion of antibiotic-resistant Streptococcus salivarius in the oropharynx (Group Ia: acne, using antibiotics, 13 isolates, NCCLS M100-S10, listed as erythromycin) [%] | Proportion of antibiotic-resistant Streptococcus salivarius in the oropharynx (Group Ib: acne, not using antibiotics, 5 isolates, NCCLS M100-S10, listed as erythromycin) [%] | Proportion of antibiotic-resistant Streptococcus salivarius in the oropharynx (Group II: no acne, no antibiotics, 15 isolates, NCCLS M100-S10, listed as tetracycline) [%] | Proportion of antibiotic-resistant Streptococcus salivarius in the oropharynx (Group Ia: acne, using antibiotics, 13 isolates, NCCLS M100-S10, listed as tetracycline) [%] | Proportion of antibiotic-resistant Streptococcus salivarius in the oropharynx (Group Ib: acne, not using antibiotics, 5 isolates, NCCLS M100-S10, listed as tetracycline) [%]
1 | CCC[C@@H]1C[C@@H](C(=O)N[C@@H]([C@H]2O[C@H](SC)[C@H](O)[C@@H](O)[C@H]2O)[C@H](C)Cl)N(C)C1 [Clindamycin, clindamycin] | 1/15 (7%) | 7 | 9/13 (69%) | 69 | 1/5 (20%) | 20 | – | – | – | – | – | –
2 | CC[C@H]1OC(=O)[C@H](C)[C@@H](O[C@H]2C[C@@](C)(OC)[C@@H](O)[C@H](C)O2)[C@H](C)[C@@H](O[C@@H]2O[C@H](C)C[C@H](N(C)C)[C@H]2O)[C@](C)(O)C[C@@H](C)C(=O)[C@H](C)[C@@H](O)[C@]1(C)O [Erythromycin, erythromycin] | 3/15 (20%) | – | 9/13 (69%) | – | 2/5 (40%) | – | 20 | 69 | 40 | – | – | –
3 | CN(C)[C@@H]1C(O)=C(C(N)=O)C(=O)[C@@]2(O)C(O)=C3C(=O)c4c(O)cccc4[C@@](C)(O)[C@H]3C[C@@H]12 [Tetracycline, tetracycline] | 4/15 (27%) | – | 10/13 (77%) | – | 2/5 (40%) | – | – | – | – | 27 | 77 | 40

Reference: patent US8415289B2, “Bacterial-derived BLIS for treatment of acne” (The Trustees of the University of Pennsylvania, priority 2005, dated 2013)
